Experimental data from patent US5368864A, “Formulation of oxypurinol and/or its alkali and alkaline earth salts” (Henning Berlin GmbH Chemie- und Pharmawerk, priority 1988, dated 1994).
Blank lines part the entries; values can stand above or below the compound they belong to.

Assays:
[1] = associated with sparing solubility; cited from earlier work
[2] = cited from earlier work
[3] = Solubility as a function of pH value and time as compared to crystalline active substance; assay type: physicochemical; details: solids dispersion is test 3; for solubility at 1 h: 60 minutes
Protocol: (§1) The forms according to the invention were tested for solubility and rate of dissolution, respectively, in comparison to crystalline oxypurinol sodium monohydrate finely powdered in a mortar.
Solubility according to example 1 (test 3) as a function of pH value and
as compared to crystalline active substance (values in mg/liter)

[4] = Solubility and pH of aqueous solutions (background statements); assay type: physicochemical
[5] = Dissolution test (USP XXI dissolution tester) of oxypurinol sodium monohydrate and formulations in 0.1 N hydrochloric acid, spectrophotometric at 245 nm; assay type: physicochemical; details: for Dissolved amount of active substance (cumulated values): 0.1 N HCl, 37° C.
Protocol: The dispersion of solids containing oxypurinol was mixed with the adjuvants indicated, and pressed to give tablets having a content of 150 mg of active substance. Two tablets, corresponding to 300 mg of oxypurinol sodium monohydrate, were tested for liberation of active substance.
as §1
United States Pharmacopoeia (USP XXI)
0.1 N hydrochloric acid
Measurements were effected spectrophotometrically at 245 nm.

SMILES: O=c1[nH]c(=O)c2c[nH]nc2[nH]1 [Oxypurinol, 4,6-dihydroxypyrazolo[3,4-d]pyrimidine]
absorbability [1]: insufficient absorbability | solubility in water and digestive juice [2]: sparingly soluble

solubility at 5 min ([3]; pH = 1.5): 43 µg/mL | solubility at 10 min ([3]; pH = 1.5): 62 µg/mL | solubility at 5 min ([3]; pH = 3.0): 81 µg/mL | solubility at 10 min ([3]; pH = 3.0): 110 µg/mL | solubility at 1 h ([3]; pH = 3.0): 222 µg/mL | solubility at 5 min ([3]; pH = 4.5): 85 µg/mL | solubility at 10 min ([3]; pH = 4.5): 110 µg/mL | solubility at 1 h ([3]; pH = 4.5): 243 µg/mL | solubility at 5 min ([3]; pH = 6.5): 243 µg/mL | solubility at 10 min ([3]; pH = 6.5): 261 µg/mL | solubility at 1 h ([3]; pH = 6.5): 290 µg/mL | pH value of aqueous solutions ([4]; aqueous solution): 9.5 | solubility ([4]; water, 25° C., read-out: concentration permitted in aqueous solutions): ~15000 µg/mL | solubility at 5 min ([5]; 0.1 n hcl, after 5 minutes): 43 µg/mL | solubility at 1 h ([5]; 0.1 n hcl, after 60 minutes): 142 µg/mL | solubility at 24 h ([5]; 0.1 n hcl, after 24 hours, read-out: maximum solubility): ~280 µg/mL | solubility at 48 h ([5]; 0.1 n hcl, after another 24 hours, read-out: solubility as a constant for the substance): ~260 µg/mL | Dissolved amount of active substance (cumulated values) ([5]; 5 min): 43 mg/L | Dissolved amount of active substance (cumulated values) ([5]; 10 min): 62 mg/L | Dissolved amount of active substance (cumulated values) ([5]; 20 min): 88 mg/L | Dissolved amount of active substance (cumulated values) ([5]; 30 min): 115 mg/L | Dissolved amount of active substance (cumulated values) ([5]; 45 min): 126 mg/L | Dissolved amount of active substance (cumulated values) ([5]; 60 min): 142 mg/L | Dissolved amount of active substance (cumulated values) ([5]; 180 min): 207 mg/L | Dissolved amount of active substance (cumulated values) ([5]; 24 hrs): 280 mg/L | Dissolved amount of active substance (cumulated values) ([5]; 48 hrs): 263 mg/L | rate of dissolution ([5]; measurement time of 5 minutes): about 43 mg/5 min
SMILES: O=c1[nH]c(=O)c2c[nH]nc2[nH]1 [oxypurinol sodium monohydrate, Oxypurinol sodium monohydrate]
